Assay results: patent publication US9253983B2, “Triazole compound and use thereof” (KUREHA CORPORATION, priority 2011, dated 2016)

Tests used:
[1] = test system: Erysiphe graminis f. sp tritici; test: Controlling effect on wheat powdery mildew by foliage spray treatment (Tests 1 and 2); type: in vivo; conditions: foliage spray 12.5 mg/L, 1,000 L/ha
Excerpt: The suspension was sprayed at 1,000 L/ha to leaves of wheat plants (cultivar: NORIN No. 61) in their second leaf stage. The wheat plants had been grown in square plastic pots (6 cm×6 cm). After the suspension was left to dry, the plants were inoculated with Erysiphe graminis f. sp tritici taken from wheat plants infected with wheat powdery mildew, by sprinkling. 8 days and 11 days after the inoculation, the lesion degree of the wheat powdery mildew was examined in accordance with the criteria shown in Table 4. The protective values were found in the same way as in Experiment Example 2.
The suspension was sprayed at 1,000 L/ha to leaves of wheat plants (cultivar: NORIN No. 61) in their second leaf stage. The wheat plants had been grown in square plastic pots (6 cm×6 cm). After the leaves were air-dried, they were inoculated with Erysiphe graminis f. sp tritici taken from wheat plants infected with wheat powdery mildew, by sprinkling. 8 days after the inoculation, the lesion degree of the wheat powdery mildew was examined. The protective values were calculated as were in Experiment Example 1.

rice Bakanae disease = test: Efficacy of seed treatment on rice Bakanae disease; type: in vivo, Gibberella fujikuroi; conditions: rice seed treatment 80 g ai/100 kg seeds, 20 days after sowing
Method: A pot experiment was performed to evaluate the effectiveness of the seed treatment in controlling rice Bakanae disease. Compound (1-1a), which was dissolved in DMSO to make up such a concentration that the seeds would be treated in treatment amount of 80 g ai/100 kg seeds, was applied in a vial to seeds of a rice plant infected with rice Bakanae disease, and thereafter 16 rice plant seeds were sowed in a 50-cm^2 pot. The pot was kept in a greenhouse with water supplied to its bottom. 20 days after the sowing, examination was conducted on the percentage of seedlings infected with […]. Then, protective values were calculated as were in Experiment Example 4.

rice plant [2] = test: Growth inhibition (adverse effects) of seed treatment on rice plant seeds; type: in vivo; conditions: treatment amount 80 g ai/100 kg seeds, 20 days after sowing
Method: A pot experiment was performed to evaluate the growth inhibition (adverse effects) caused by the seed treatment. Compound (1-1a) and Compound (1-2a), each of which was dissolved in DMSO to make up such a concentration that the seeds would be treated in treatment amount of 2 g to 200 g ai/100 kg seeds, were each applied to wheat seeds in a vial, and thereafter 8 wheat seeds were sowed in an 80-cm^2 pot. The pot was kept in a greenhouse with water supplied to its bottom. 20 days after the sowing, a growth measure of wheat was evaluated. A growth inhibition index was calculated based on the criteria shown by Table 10. In Table 10, a smaller growth inhibition index indicates a lesser adverse effect of growth inhibition caused by the treatment with the use of a plant disease controlling agent.
(§1) A pot experiment was performed to evaluate the growth inhibition (adverse effects) caused by the seed treatment. Compound (1-1a), which was dissolved in DMSO to make up such a concentration that the seeds would be treated in treatment amount of 80 g ai/100 kg seeds, was applied to rice plant seeds in a vial, and thereafter 16 rice plant seeds were sowed in a 50-cm^2 pot. The pot was kept in a greenhouse with water supplied to its bottom. 20 days after the sowing, a growth measure of rice plant was evaluated. A growth inhibition index was calculated as was in Experiment Example 5.

rice plant [3] = test: Necrosis (adverse effects) of seed treatment on rice plant seeds; type: in vivo; conditions: treatment amount 80 g ai/100 kg seeds, 20 days after sowing
Method: A pot experiment was performed to evaluate necrosis (adverse effects) caused by the seed treatment. Compound (1-1a) and Compound (1-2a), each which was dissolved in DMSO to make up such a concentration that the seeds would be treated in treatment amount of 2 g to 200 g ai/100 kg seeds, were each applied to wheat seeds in a vial, and thereafter 8 wheat seeds were sowed in an 80-cm^2 pot. The pot was kept in a greenhouse with water supplied to its bottom. 20 days after the sowing, an extent of necrosis (percentage of necrotic surface area) of wheat was evaluated. A necrosis index was derived from the percentage of the necrotic surface area, based on the criteria shown by Table 13. In Table 13, a smaller necrosis index indicates a lesser adverse effect of necrosis caused by the treatment with the use of a plant disease controlling agent.
as §1, with “necrosis” for “the growth inhibition”, “The pot was kept in a greenhouse with water supplied to its bottom.” left out, “an extent of necrosis (percentage of necrotic surface area)” for “a growth measure”, “necrosis” for “growth inhibition”, “6.” for “5.”

[4] = test system: Pseudocercoporella herpotrichoides; test: Test 1 for antifungal effect, plate medium: P.h; type: cell-based; conditions: PDA plate medium
Method: (§2) Compound (1-1a) or Compound (1-2a) was dissolved in dimethyl sulfoxide, and the resulting solution was added to a PDA medium (potato dextrose-agar medium) at about 60° C. The medium and the solution were mixed thoroughly in a conical flask, poured into a petri dish, and allowed to solidify. In this way, a plate medium containing Compound (1-1a) or Compound (1-2a) at a certain concentration was prepared.
(§3) Meanwhile, test microorganisms cultured on a plate medium in advance were cut out with the use of a cork borer 4 mm in diameter, and were inoculated onto the compound-containing plate medium. After the inoculation, the microorganisms were cultured at their optimum growth temperatures (for example, refer to LIST OF CULTURES 1996 microorganisms 10th edition, Institute for Fermentation (foundation)) for 1 day to 7 days, and their growth was determined by measuring the diameter of their flora. The extent of growth of the microorganisms on the compound-containing plate medium was compared with that of microorganisms on a plate medium where no compound was added, and mycelial growth inhibition rate was calculated by the following equation: R=100(dc−dt)/dc where R is mycelial growth inhibition rate (%), dc is the flora diameter in untreated plate, and dt is the flora diameter in plate treated with the compound.
(§4) A larger antifungal index indicates a better antifungal effect.

Alternaria alternata = test: Test 1 for antifungal effect, plate medium: A.m; type: cell-based; conditions: PDA plate medium
Method: as §2, §3, §4

Botrytis cinerea = test: Test 1 for antifungal effect, plate medium: B.c; type: cell-based; conditions: PDA plate medium
Method: as §2, §3, §4

Cercospora beticola = test: Test 1 for antifungal effect, plate medium: C.b; type: cell-based; conditions: PDA plate medium
Method: as §2, §3, §4

Compound: CC1(CCl)CCC(Cc2ccc(Cl)cc2)C1(O)Cn1cncn1 (single isomer, unassigned) [Compound (1-1b), (1,2-cis, 1,5-cis)-5-(4-chlorobenzyl)-2-chloromethyl-2-methyl-1-(1H-1,2,4-triazole-1-ylmethyl)cyclopentanol]
- Protective value (%) (8 days after treatment) [1]: 71%
- Protective value (%) (11 days after treatment) [1]: 58%
- Protective value (%) (rice Bakanae disease): 66%
- Growth inhibition index (rice plant [2]): 4 (Less than 20% but 10% or more)
- Necrosis index (rice plant [3]): 2 (Less than 20% but not less than 5%)
- Antifungal index (mycelial growth inhibition rate) ([4]; 0.16 mg/L): 1 (Less than 60%)
- Antifungal index (mycelial growth inhibition rate) ([4]; 0.31 mg/L): 1 (Less than 60%)
- Antifungal index (mycelial growth inhibition rate) ([4]; 0.63 mg/L): 2 (Less than 70% but not less than 60%)
- Antifungal index (mycelial growth inhibition rate) ([4]; 1.25 mg/L): 3 (Less than 80% but not less than 70%)
- Antifungal index (mycelial growth inhibition rate) ([4]; 2.50 mg/L): 4 (Less than 90% but not less than 80%)
- Antifungal index (mycelial growth inhibition rate) (Alternaria alternata; 0.16 mg/L): 1 (Less than 60%)
- Antifungal index (mycelial growth inhibition rate) (Alternaria alternata; 0.31 mg/L): 3 (Less than 80% but not less than 70%)
- Antifungal index (mycelial growth inhibition rate) (Alternaria alternata; 0.63 mg/L): 4 (Less than 90% but not less than 80%)
- Antifungal index (mycelial growth inhibition rate) (Alternaria alternata; 1.25 mg/L): 4 (Less than 90% but not less than 80%)
- Antifungal index (mycelial growth inhibition rate) (Alternaria alternata; 2.50 mg/L): 5 (90% or greater)
- Antifungal index (mycelial growth inhibition rate) (Botrytis cinerea; 0.16 mg/L): 1 (Less than 60%)
- Antifungal index (mycelial growth inhibition rate) (Botrytis cinerea; 0.31 mg/L): 1 (Less than 60%)
- Antifungal index (mycelial growth inhibition rate) (Botrytis cinerea; 0.63 mg/L): 3 (Less than 80% but not less than 70%)
- Antifungal index (mycelial growth inhibition rate) (Botrytis cinerea; 1.25 mg/L): 4 (Less than 90% but not less than 80%)
- Antifungal index (mycelial growth inhibition rate) (Botrytis cinerea; 2.50 mg/L): 5 (90% or greater)
- Antifungal index (mycelial growth inhibition rate) (Cercospora beticola; 0.16 mg/L): 3 (Less than 80% but not less than 70%)
- Antifungal index (mycelial growth inhibition rate) (Cercospora beticola; 0.31 mg/L): 4 (Less than 90% but not less than 80%)
- Antifungal index (mycelial growth inhibition rate) (Cercospora beticola; 0.63 mg/L): 5 (90% or greater)
- Antifungal index (mycelial growth inhibition rate) (Cercospora beticola; 1.25 mg/L): 5 (90% or greater)
- Antifungal index (mycelial growth inhibition rate) (Cercospora beticola; 2.50 mg/L): 5 (90% or greater)

Compound: CC1(CCl)CCC(Cc2ccc(F)cc2)C1(O)Cn1cncn1 (single isomer, unassigned) [Compound (1-2a), (1,2-cis, 1,5-cis)-5-(4-fluorobenzyl)-2-chloromethyl-2-methyl-1-(1H-1,2,4-triazole-1-ylmethyl)cyclopentanol]
- Antifungal index (mycelial growth inhibition rate) (Botrytis cinerea; 0.16 mg/L): 3 (Less than 80% but not less than 70%)
- Antifungal index (mycelial growth inhibition rate) (Botrytis cinerea; 0.31 mg/L): 5 (90% or greater)
- Antifungal index (mycelial growth inhibition rate) (Botrytis cinerea; 0.63 mg/L): 5 (90% or greater)
- Antifungal index (mycelial growth inhibition rate) (Botrytis cinerea; 1.25 mg/L): 5 (90% or greater)
- Antifungal index (mycelial growth inhibition rate) (Botrytis cinerea; 2.50 mg/L): 5 (90% or greater)

Compound: CC1(CCl)CCC(Cc2ccc(F)cc2)C1(O)Cn1cncn1 (single isomer, unassigned) [Compound (1-2b), (1,2-cis, 1,5-cis)-5-(4-fluorobenzyl)-2-chloromethyl-2-methyl-1-(1H-1,2,4-triazole-1-ylmethyl)cyclopentanol]
- Antifungal index (mycelial growth inhibition rate) (Botrytis cinerea; 0.16 mg/L): 1 (Less than 60%)
- Antifungal index (mycelial growth inhibition rate) (Botrytis cinerea; 0.31 mg/L): 3 (Less than 80% but not less than 70%)
- Antifungal index (mycelial growth inhibition rate) (Botrytis cinerea; 0.63 mg/L): 5 (90% or greater)
- Antifungal index (mycelial growth inhibition rate) (Botrytis cinerea; 1.25 mg/L): 5 (90% or greater)
- Antifungal index (mycelial growth inhibition rate) (Botrytis cinerea; 2.50 mg/L): 5 (90% or greater)

Compound: CC1(CCl)CCC(Cc2ccc(Cl)cc2)C1(O)Cn1cncn1 (single isomer, unassigned) [Compound (1-1a), (1,2-cis, 1,5-cis)-5-(4-chlorobenzyl)-2-chloromethyl-2-methyl-1-(1H-1,2,4-triazole-1-ylmethyl)cyclopentanol]
- Protective value (%) (8 days after treatment) [1]: 96%
- Protective value (%) (11 days after treatment) [1]: 84%
- Protective value (%) (rice Bakanae disease): 100%
- Growth inhibition index (rice plant [2]): 0 (50% or more)
- Necrosis index (rice plant [3]): 0 (Less than 1%)
- Antifungal index (mycelial growth inhibition rate) ([4]; 0.16 mg/L): 1 (Less than 60%)
- Antifungal index (mycelial growth inhibition rate) ([4]; 0.31 mg/L): 5 (90% or greater)
- Antifungal index (mycelial growth inhibition rate) ([4]; 0.63 mg/L): 5 (90% or greater)
- Antifungal index (mycelial growth inhibition rate) ([4]; 1.25 mg/L): 5 (90% or greater)
- Antifungal index (mycelial growth inhibition rate) ([4]; 2.50 mg/L): 5 (90% or greater)
- Antifungal index (mycelial growth inhibition rate) (Alternaria alternata; 0.16 mg/L): 1 (Less than 60%)
- Antifungal index (mycelial growth inhibition rate) (Alternaria alternata; 0.31 mg/L): 4 (Less than 90% but not less than 80%)
- Antifungal index (mycelial growth inhibition rate) (Alternaria alternata; 0.63 mg/L): 4 (Less than 90% but not less than 80%)
- Antifungal index (mycelial growth inhibition rate) (Alternaria alternata; 1.25 mg/L): 5 (90% or greater)
- Antifungal index (mycelial growth inhibition rate) (Alternaria alternata; 2.50 mg/L): 5 (90% or greater)
- Antifungal index (mycelial growth inhibition rate) (Botrytis cinerea; 0.16 mg/L): 3 (Less than 80% but not less than 70%)
- Antifungal index (mycelial growth inhibition rate) (Botrytis cinerea; 0.31 mg/L): 5 (90% or greater)
- Antifungal index (mycelial growth inhibition rate) (Botrytis cinerea; 0.63 mg/L): 5 (90% or greater)
- Antifungal index (mycelial growth inhibition rate) (Botrytis cinerea; 1.25 mg/L): 5 (90% or greater)
- Antifungal index (mycelial growth inhibition rate) (Botrytis cinerea; 2.50 mg/L): 5 (90% or greater)
- Antifungal index (mycelial growth inhibition rate) (Cercospora beticola; 0.16 mg/L): 4 (Less than 90% but not less than 80%)
- Antifungal index (mycelial growth inhibition rate) (Cercospora beticola; 0.31 mg/L): 5 (90% or greater)
- Antifungal index (mycelial growth inhibition rate) (Cercospora beticola; 0.63 mg/L): 5 (90% or greater)
- Antifungal index (mycelial growth inhibition rate) (Cercospora beticola; 1.25 mg/L): 5 (90% or greater)
- Antifungal index (mycelial growth inhibition rate) (Cercospora beticola; 2.50 mg/L): 5 (90% or greater)
